Source: US20160002248A1, “GLS1 INHIBITORS FOR TREATING DISEASE” (Board of Regents, The University of Texas System, priority 2014, published 2016)
pEC50, pIC50: −log10 of the molar value.

What was measured:
A549 cells = assay: Proliferation Assay (A549 cell viability, Cell Titer Fluor); type: cell-based; conditions: Homo sapiens, 72 hours
In short: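 Seed A549 at 1000 cells/well and culture 24 h. Add compound (final DMSO 0.5%) and incubate 72 h at 37 °C. Add Cell Titer Fluor, mix 15 min, incubate 30 min, read fluorescence and fit EC50 by four-parameter logistic.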

[1] = biological target: T1, purified recombinant human GAC (GLS1) (Homo sapiens, UniProt O94925); assay: GLS1 Enzymatic Activity Assay (dual-coupled enzymatic assay); type: biochemical
T1 sequence (O94925 55-598 isoform O94925-3 limits assumed): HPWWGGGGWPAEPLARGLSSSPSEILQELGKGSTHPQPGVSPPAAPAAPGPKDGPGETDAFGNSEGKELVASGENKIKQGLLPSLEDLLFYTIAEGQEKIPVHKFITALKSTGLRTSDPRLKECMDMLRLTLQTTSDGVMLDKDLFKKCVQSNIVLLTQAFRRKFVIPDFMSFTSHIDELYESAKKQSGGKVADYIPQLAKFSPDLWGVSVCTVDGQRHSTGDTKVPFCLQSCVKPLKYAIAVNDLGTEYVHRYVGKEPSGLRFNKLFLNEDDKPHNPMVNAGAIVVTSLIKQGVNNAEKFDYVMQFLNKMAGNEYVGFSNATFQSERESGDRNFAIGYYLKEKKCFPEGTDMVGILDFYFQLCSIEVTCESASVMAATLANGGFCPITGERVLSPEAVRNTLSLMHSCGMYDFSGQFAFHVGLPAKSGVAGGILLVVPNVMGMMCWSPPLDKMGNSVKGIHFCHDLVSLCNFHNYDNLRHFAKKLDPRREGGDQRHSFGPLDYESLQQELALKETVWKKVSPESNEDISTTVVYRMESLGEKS
In short: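 Recombinant human GAC (2 nM) preincubated with 50 mM potassium phosphate, then inhibitor (10 min each, RT); 1 mM glutamine, pH 7.4 Hepes buffer, 1% DMSO. Glutamate coupled via glutamate oxidase/HRP to resorufin (Ex 530/Em 590), kinetic or 20-min endpoint; IC50 by four-parameter logistic fit.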

pEC50 (A549 cells)	pIC50 [1]	Structure (SMILES)
6.30 to 7.00	> 7.00	O=C(NCc1ccccn1)c1cn(CCCCc2cc3c(-c4ccc(C(F)(F)F)cc4)c(C4CC4)[nH]c3nn2)nn1 [Example 123, 1-(4-{6-cyclopropyl-5-[4-(trifluoromethyl)phenyl]-7H-pyrrolo[2,3-c]pyridazin-3-yl}butyl)-N-(pyridin-2-ylmethyl)-1H-1,2,3-triazole-4-carboxamide]
5.30 to 6.30	> 7.00	N#Cc1ccc(-c2c(C3CC3)[nH]c3nnc(CCCCn4cc(C(=O)NCc5ccccn5)nn4)cc23)cc1 [Example 124, 1-{4-[5-(4-cyanophenyl)-6-cyclopropyl-7H-pyrrolo[2,3-c]pyridazin-3-yl]butyl}-N-(pyridin-2-ylmethyl)-1H-1,2,3-triazole-4-carboxamide]
6.30 to 7.00	> 7.00	O=C(NCc1ccccn1)c1cn(CCCCc2cc3c(-c4ccc(F)cc4)c(C4CC4)[nH]c3nn2)nn1 [Example 125, 1-{4-[6-cyclopropyl-5-(4-fluorophenyl)-7H-pyrrolo[2,3-c]pyridazin-3-yl]butyl}-N-(pyridin-2-ylmethyl)-1H-1,2,3-triazole-4-carboxamide]
5.30 to 6.30	6.30 to 7.00	O=C(NCc1ccccn1)c1cn(CCCCc2cc3c(Cc4ccccn4)c(C4CC4)[nH]c3nn2)nn1 [Example 126, 1-{4-[6-cyclopropyl-5-(pyridin-2-ylmethyl)-7H-pyrrolo[2,3-c]pyridazin-3-yl]butyl}-N-(pyridin-2-ylmethyl)-1H-1,2,3-triazole-4-carboxamide]
6.30 to 7.00	> 7.00	O=C(NCc1cc(OC(F)(F)F)ccc1F)c1cn(CCCCc2cc3c(Cc4ccccn4)c(C4CC4)[nH]c3nn2)nn1 [Example 127, 1-{4-[6-cyclopropyl-5-(pyridin-2-ylmethyl)-7H-pyrrolo[2,3-c]pyridazin-3-yl]butyl}-N-{[2-fluoro-5-(trifluoromethoxy)phenyl]methyl}-1H-1,2,3-triazole-4-carboxamide]
> 7.00	> 7.00	O=C(NCc1cc(OC(F)(F)F)ccc1F)c1cn(CCCCc2cc3c(-c4ccncc4)c(C4CC4)[nH]c3nn2)nn1 [Example 128, 1-{4-[6-cyclopropyl-5-(pyridin-4-yl)-7H-pyrrolo[2,3-c]pyridazin-3-yl]butyl)-N-{[2-fluoro-5-(trifluoromethoxy)phenyl]methyl}-1H-1,2,3-triazole-4-carboxamide]
5.30 to 6.30	6.30 to 7.00	O=C(NCc1ccccn1)c1cn(CCCCc2cc3c(-c4cncnc4)c(C4CC4)[nH]c3nn2)nn1 [Example 129, 1-(4-(6-cyclopropyl-5-(pyrimidin-5-yl)-7H-pyrrolo[2,3-c]pyridazin-3-yl)butyl)-N-(pyridin-2-ylmethyl)-1H-1,2,3-triazole-4-carboxamide]
6.30 to 7.00	> 7.00	CS(=O)(=O)N1CC(c2cc3cc(CCCCn4cc(C(=O)NCc5cc(OC(F)(F)F)ccc5F)nn4)nnc3[nH]2)C1 [Example 130, N-{[2-fluoro-5-(trifluoromethoxy)phenyl]methyl}-1-{4-[6-(1-methanesulfonylazetidin-3-yl)-7H-pyrrolo[2,3-c]pyridazin-3-yl]butyl}-1H-1,2,3-triazole-4-carboxamide]
> 7.00	> 7.00	CC(C)OC(=O)N1CC(c2cc3cc(CCCCn4cc(C(=O)NCc5cc(OC(F)(F)F)ccc5F)nn4)nnc3[nH]2)C1 [Example 131, propan-2-yl 3-(3-{4-[4-({[2-fluoro-5-(trifluoromethoxy)phenyl]methyl}carbamoyl)-1H-1,2,3-triazol-1-yl]butyl}-7H-pyrrolo[2,3-c]pyridazin-6-yl)azetidine-1-carboxylate]
> 7.00	> 7.00	CCOC(=O)N1CC(c2cc3cc(CCCCn4cc(C(=O)NCc5cc(OC(F)(F)F)ccc5F)nn4)nnc3[nH]2)C1 [Example 132, ethyl 3-(3-{4-[4-({[2-fluoro-5-(trifluoromethoxy)phenyl]methyl}carbamoyl)-1H-1,2,3-triazol-1-yl]butyl)-7H-pyrrolo[2,3-c]pyridazin-6-yl)azetidine-1-carboxylate]
6.30 to 7.00	> 7.00	CC(C)(O)C(=O)N1CC(c2cc3cc(CCCCn4cc(C(=O)NCc5cc(OC(F)(F)F)ccc5F)nn4)nnc3[nH]2)C1 [Example 133, N-{[2-fluoro-5-(trifluoromethoxy)phenyl]methyl}-1-(4-{6-[1-(2-hydroxy-2-methylpropanoyl)azetidin-3-yl]-7H-pyrrolo[2,3-c]pyridazin-3-yl}butyl)-1H-1,2,3-triazole-4-carboxamide]
> 7.00	> 7.00	O=C(NCc1ccccn1)c1cn(CCCCc2cc3cc(-c4ccccc4F)[nH]c3nn2)nn1 [Example 134, 1-(4-(6-(2-fluorophenyl)-7H-pyrrolo[2,3-c]pyridazin-3-yl)butyl)-N-(pyridin-2-ylmethyl)-1H-1,2,3-triazole-4-carboxamide]
5.30 to 6.30	> 7.00	Cn1nccc1-c1c(C2CC2)[nH]c2nnc(CCCCn3cc(C(=O)NCc4ccccn4)nn3)cc12 [Example 135, 1-{4-[6-cyclopropyl-5-(1-methyl-1H-pyrazol-5-yl)-7H-pyrrolo[2,3-c]pyridazin-3-yl]butyl}-N-(pyridin-2-ylmethyl)-1H-1,2,3-triazole-4-carboxamide]
5.30 to 6.30	> 7.00	CS(=O)(=O)c1cccc(-c2c(C3CC3)[nH]c3nnc(CCCCn4cc(C(=O)NCc5ccccn5)nn4)cc23)c1 [Example 136, 1-{4-[6-cyclopropyl-5-(3-methanesulfonylphenyl)-7H-pyrrolo[2,3-c]pyridazin-3-yl]butyl}-N-(pyridin-2-ylmethyl)-1H-1,2,3-triazole-4-carboxamide]
5.30 to 6.30	> 7.00	CS(=O)(=O)Nc1cccc(-c2c(C3CC3)[nH]c3nnc(CCCCn4cc(C(=O)NCc5ccccn5)nn4)cc23)c1 [Example 137, 1-{4-[6-cyclopropyl-5-(3-methanesulfonamidophenyl)-7H-pyrrolo[2,3-c]pyridazin-3-yl]butyl}-N-(pyridin-2-ylmethyl)-1H-1,2,3-triazole-4-carboxamide]
5.30 to 6.30	> 7.00	O=C(NCc1ccccn1)c1cn(CCCCc2cc3c(-c4ccc(O)cc4)c(C4CC4)[nH]c3nn2)nn1 [Example 138, 1-{4-[6-cyclopropyl-5-(4-hydroxyphenyl)-7H-pyrrolo[2,3-c]pyridazin-3-yl]butyl}-N-(pyridin-2-ylmethyl)-1H-1,2,3-triazole-4-carboxamide]
6.30 to 7.00	> 7.00	O=C(NCc1ccccn1)c1cn(CCCCc2cc3c(-c4ccsc4)c(C4CC4)[nH]c3nn2)nn1 [Example 139, 1-{4-[6-cyclopropyl-5-(thiophen-3-yl)-7H-pyrrolo[2,3-c]pyridazin-3-yl]butyl}-N-(pyridin-2-ylmethyl)-1H-1,2,3-triazole-4-carboxamide]
5.30 to 6.30	> 7.00	N#CCC(=O)N1CC(c2cc3cc(CCCCn4cc(C(=O)NCc5cc(OC(F)(F)F)ccc5F)nn4)nnc3[nH]2)C1 [Example 140, 1-(4-{6-[1-(2-cyanoacetyl)azetidin-3-yl]-7H-pyrrolo[2,3-c]pyridazin-3-yl}butyl)-N-{[2-fluoro-5-(trifluoromethoxy)phenyl]methyl}-1H-1,2,3-triazole-4-carboxamide]
6.30 to 7.00	> 7.00	O=C(NCc1cc(OC(F)(F)F)ccc1F)c1cn(CCCCc2cc3cc(C4CN(C(=O)CC(F)(F)F)C4)[nH]c3nn2)nn1 [Example 141, N-{[2-fluoro-5-(trifluoromethoxy)phenyl]methyl}-1-(4-{6-[1-(3,3,3-trifluoropropanoyl)azetidin-3-yl]-7H-pyrrolo[2,3-c]pyridazin-3-yl}butyl)-1H-1,2,3-triazole-4-carboxamide]
> 7.00	> 7.00	O=C(NCc1cccc(OC(F)(F)F)c1)c1cn(CCCCc2cc3c(-c4ccccn4)c(C4CC4)[nH]c3nn2)nn1 [Example 143, 1-{4-[6-cyclopropyl-5-(pyridin-2-yl)-7H-pyrrolo[2,3-c]pyridazin-3-yl]butyl}-N-{[3-(trifluoromethoxy)phenyl]methyl}-1H-1,2,3-triazole-4-carboxamide]
> 7.00	> 7.00	O=C(NCc1cc(OC(F)(F)F)ccc1F)c1cn(CCCCc2cc3c(-c4ccccn4)c(C4CC4)[nH]c3nn2)nn1 [Example 144, 1-{4-[6-cyclopropyl-5-(pyridin-2-yl)-7H-pyrolo[2,3-c]pyridazin-3-yl]butyl}-N-{[2-fluoro-5-(trifluoromethoxy)phenyl]methyl}-1H-1,2,3-triazole-4-carboxamide]
6.30 to 7.00	> 7.00	O=C(NCc1ccccn1)c1cn(CCCCc2cc3c(-c4ccc5c(c4)OCO5)c(C4CC4)[nH]c3nn2)nn1 [Example 145, 1-{4-[5-(2H-1,3-benzodioxol-5-yl)-6-cyclopropyl-7H-pyrrolo[2,3-c]pyridazin-3-yl]butyl}-N-(pyridin-2-ylmethyl)-1H-1,2,3-triazole-4-carboxamide]
